Source: patent US5079346A, “Gallium-labelled imaging agents” (priority 1990, dated 1992)
Several values for one entry are separate records, joined by “and”; a condition that tells them apart may be missing. Equal values may be shown once. Read-outs that look alike come from different tables or passages of the source.

Experiments:
[1] = Biodistribution in rats after an iv injection; type: in vivo, male Sprague Dawley rats; conditions: for Biodistribution, Blood: blood assumed 7% of body weight; for Biodistribution, Muscle: muscle assumed 40% of body weight; for Brain/Blood: ratio
Experimental: Biodistribution of [^67 Ga]BAT-TECH was studied in male Sprague Dawley rats (200-250 g) which were allowed access to food and water ad lib. Saline solution containing [^67 Ga]BAT-TECH in a volume of 0.2 ml was injected directly into a femoral vein. Rats were sacrified (at various time points, 2, 30 and 60 min., post injection) by cardiac excision under ether anesthesia. The organs of interest were removed and counted using a well gamma counter. Percent dose per organ was calculated by comparison of tissue counts to suitably diluted aliquots of injected material. Total activities of blood and muscle were calculated assuming that they are 7% and 40% of total body weight, respectively. Each time point consists of a group of three rats.
2,9-Dimethyl-2,9-mercapto-5-(2-hydroxyphnyl)-4,7-diazadecane was labelled, and the biodistributino of the labelled compound measured, by analogous methods.

[2] = Lipid solubility (reverse phase HPLC, PRP-1 column); type: physicochemical; conditions: PRP-1, pH 7
Experimental: At tracer concentrations, the aqueous chemistry has been studied using [^67 Ga] gallium citrate as the starting material. […] The ratio of ligand to ^67 Ga was determined to be […]. Presumably, under the conditions required for the preparation of the ^67 Ga complex, the cationic [^67 Ga(BAT-TECH)]^+ species is formed.

[3] = 1-octanol/0.1 m phosphate
Experimental: The partition coefficient of the [^67 Ga(BAT-TECH)]^+ complex was measured by mixing the compound with 3 g each of 1-octanol and buffer (pH 7.0 or 7.4, 0.1 M phosphate) in a test tube. This test tube was vortexed for 3 minutes at room temperature and then centrifuged for 5 minutes. Two weighed samples (0.5 g each) from the 1-octanol and buffer layers were counted in a well counter. The partition coefficient was determined by calculating the ratio of counts per minute/gram of octanol to that of buffer. Samples from the octanol layer were repartitioned until consistent partition coefficient values were obtained. The measurement was repeated three times.

[4] = literature; cited from earlier work
[5] = literature, cited from earlier work
[6] = rats, cited from earlier work
[7] = iv, versus [^68 Ga](5-MeOSal)3 TAME

| SMILES | Biodistribution, Brain ([1]; iv, 2 min) | Biodistribution, Heart ([1]; iv, 2 min) | Biodistribution, Kidney ([1]; iv, 2 min) | Biodistribution, Liver ([1]; iv, 2 min) [% dose/organ] | Biodistribution, Lung ([1]; iv, 2 min) | Biodistribution, Skin ([1]; iv, 2 min) | Biodistribution, Spleen ([1]; iv, 2 min) | Biodistribution, Blood ([1]; iv, 2 min) | Biodistribution, Muscle ([1]; iv, 2 min) [% dose/organ] | Biodistribution, Brain ([1]; iv, 30 min) | Biodistribution, Heart ([1]; iv, 30 min) | Biodistribution, Kidney ([1]; iv, 30 min) | Biodistribution, Liver ([1]; iv, 30 min) [% dose/organ] | Biodistribution, Lung ([1]; iv, 30 min) | Biodistribution, Skin ([1]; iv, 30 min) | Biodistribution, Spleen ([1]; iv, 30 min) | Biodistribution, Blood ([1]; iv, 30 min) | Biodistribution, Muscle ([1]; iv, 30 min) [% dose/organ] | other results |
| --- | --- | --- | --- | --- | --- | --- | --- | --- | --- | --- | --- | --- | --- | --- | --- | --- | --- | --- | --- |
| CCC1(CC)C[NH+]2CC3(CCCCC3)[NH+]3CC(CC)(CC)[S][67Ga-]23[S]1 (stereo not drawn) [[^67 Ga]BAT-TECH] | 0.02 ± 0.004 % dose/organ | 1.68 % dose/organ and 1.68 ± 0.12 % dose/organ | 6.94 ± 0.31 % dose/organ | 21.52 ± 1.11 | 2.07 ± 0.07 % dose/organ | 5.44 ± 1.65 % dose/organ | 0.50 ± 0.06 % dose/organ | 10.18 ± 0.30 % dose/organ | 13.89 ± 3.21 | 0.01 ± 0.001 % dose/organ | 0.52 ± 0.08 % dose/organ | 2.00 ± 0.10 % dose/organ | 33.54 ± 4.42 | 0.46 ± 0.09 % dose/organ | 7.56 ± 1.60 % dose/organ | 0.15 ± 0.009 % dose/organ | 3.58 ± 0.08 % dose/organ | 21.14 ± 2.18 | blood and lung washout ([1]; in words): rapid blood and lung washout; myocardial uptake ([1]; in words): fast myocardial uptake; uptake in the liver, washout ([1]; iv): significant uptake in the liver which does not wash out with time; heart uptake ([1]; iv, 30 min): 0.52 % dose/g; Biodistribution, Brain ([1]; iv, 60 min): 0.01 ± 0.002 % dose/organ; Biodistribution, Heart ([1]; iv, 60 min): 0.26 ± 0.02 % dose/organ; Biodistribution, Kidney ([1]; iv, 60 min): 1.06 ± 0.14 % dose/organ; Biodistribution, Liver ([1]; iv, 60 min): 46.41 ± 2.39 % dose/organ; Biodistribution, Lung ([1]; iv, 60 min): 0.37 ± 0.009 % dose/organ; Biodistribution, Skin ([1]; iv, 60 min): 5.78 ± 0.92 % dose/organ; Biodistribution, Spleen ([1]; iv, 60 min): 0.11 ± 0.001 % dose/organ; Biodistribution, Blood ([1]; iv, 60 min): 4.54 ± 1.10 % dose/organ; Biodistribution, Muscle ([1]; iv, 60 min): 10.79 ± 1.85 % dose/organ; heart uptake ([1]; iv, 1 hour): 0.26 % dose/g; heart to blood ratio [1, 7]: comparable to or superior to those reported for [^68 Ga](5- MeOSal)3 TAME; heart to lung ratio [1, 7]: comparable to or superior to those reported for [^68 Ga](5- MeOSal)3 TAME; lipid solubility [2]: very lipid-soluble; partition coefficient (1-octanol/buffer) ([3]; pH 7): 147±5.18; partition coefficient (1-octanol/buffer) ([3]; pH 7.4): 72.3±3.47 |
| CNC1=NN=CC(C)=NN=C(NC)[S][Cu][S]1 [Cu(PTSM), copper-labeled pyruvaldehyde bis(N4-methylthiosemicarbazone)] | – | – | – | – | – | – | – | – | – | – | – | – | – | – | – | – | – | – | lipid solubility [4]: neutral and lipid-soluble; intracellular stability ([5]; after interacting with sulfurhydryl groups): decomposes intracellularly; passage through the cell membrane / blood-brain barrier ([5]; after intravenous injection): passes through the cell membrane, including the intact blood-brain barrier |
| COc1ccc2c(c1)C=NCC1(C)CN=Cc3cc(OC)ccc3[O][68Ga]([O]2)[O]c2ccc(OC)cc2C=NC1 [[^68 Ga](5-MeOSal)3 TAME, Gallium-68 1,1,1-tris (5-methoxysalicylaldimino-methyl)ethane] | – | – | – | – | – | – | – | – | – | – | – | – | – | – | – | – | – | – | heart uptake ([6]; 1 min postinjection): 0.97 % dose/whole heart; heart uptake ([6]; 30 min postinjection): 0.23 % dose/whole heart; heart uptake ([6]; 60 min postinjection): 0.14 % dose/whole heart |
| CC1(C)C[NH+]2CC(c3ccccc3O)[NH+]3CC(C)(C)[S][67Ga-]23[S]1 (stereo not drawn) [[^67 Ga]2,9-Dimethyl-2,9-Dimercapto-5-(2-hydroxyphenyl)-4,7-diazadecane] | .026 ± .002 % dose/organ | .940 ± .094 % dose/organ | 5.677 ± .266 % dose/organ | 20.93 ± 4.13 | 1.236 ± .155 % dose/organ | .137 ± .023 % dose/organ | .431 ± .085 % dose/organ | 11.240 ± .724 % dose/organ | 14.392 ± 2.91 | .019 ± .001 % dose/organ | .380 ± .039 % dose/organ | 1.204 ± .080 % dose/organ | 25.31 ± 1.09 | .690 ± .481 % dose/organ | .079 ± .004 % dose/organ | .155 ± .022 % dose/organ | 2.823 ± .182 % dose/organ | 17.49 ± 1.37 | Brain/Blood ([1]; iv, 2 min): .028; Brain/Blood ([1]; iv, 30 min): .073 |
